Assay results reported in paper PMC8765310, “Metabolism, Excretion, and Mass Balance of [^14C]-Rezafungin in Animals and Humans” (Antimicrobial Agents and Chemotherapy, 2022).
*1 amine or outer side, *2 acyl side, *3 side chain or, on linkers, in order; H or OH if unused. Where a SMILES comes first, the peptide text is derived from it. Bridges are numbered along the chain shown (N, C = ends). [ ]: non-standard residue; d: D form. The star is where a group is joined. Orn(4R-OH,5R-OCH2CH2NMe3+) = C[N+](C)(C)CCO[C@@H](N[*:3])[C@H](O)C[C@H](N[*:1])C(=O)[*:2]; pTerphenylCO(4''-OnC5H11) = CCCCCOc1ccc(-c2ccc(-c3ccc(C(=O)*)cc3)cc2)cc1; hTyr(3S-OH,4S-OH) = N[C@H](C(=O)O)[C@H](O)[C@@H](O)c1ccc(O)cc1; Pro(3S-OH,4S-Me) = C[C@H]1CN[C@H](C(=O)O)[C@H]1O; Hyp = O=C(O)[C@@H]1C[C@@H](O)CN1

Tests used:
[1] = Human excretion/mass balance of [14C]-rezafungin; type: in vivo
Protocol: (§1) (i) Study design. This was an open-label, phase I, single-dose mass balance study. The study was conducted at Labcorp (formerly, Covance, Inc.; Madison, WI) in accordance with good clinical practice, including ICH guidelines and applicable regulatory requirements, and in general conformity with the Declaration of Helsinki. No animal work was conducted by Labcorp. All pertinent study documents were reviewed by the Institutional Review Board (IRB) prior to study initiation. Following IRB approval and collection of written informed consent, all the subjects underwent an initial screening assessment within 28 days of the first dose. Safety was assessed by vital signs, physical examinations, AE assessments, laboratory tests (chemistry, hematology, and urinalysis), and a 12-lead electrocardiogram.
(§2) Subjects were initially confined in the clinical research unit (CRU) for 17 days postdose and returned for two follow-up visits (days 29 and 60). Recovery of radioactivity was estimated by linear interpolation during the period of time subjects were away from the CRU. Blood samples, urine, and feces were collected at specified times over 60 days.
(§3) (ii) Sample analysis. Whole blood, plasma, urine, and fecal homogenate samples were mixed with scintillation fluid and analyzed by liquid scintillation counting. For non-radiolabeled rezafungin concentration determination, a bioanalytical method was validated for measuring rezafungin in human plasma that is similar to one previously reported for animal plasma ([16]). Samples were analyzed using a 100 μl aliquot volume and a protein-precipitation extraction procedure followed by liquid chromatography/tandem mass spectrometry (LC-MS/MS) analysis. Chromatography was carried out on a Waters Atlantis HPLC column (dC18, 2.1 × 50 mm, 5 μm) operating under reverse-phase gradient conditions (0.1% formic acid in water/0.1% formic acid in acetonitrile/tetrahydrofuran ramped from 55%/45%/0% to 5%/0%/95%). Rezafungin calibration range was 10.0 ng/ml to 10,000 ng/ml using isotopically-labeled d9-rezafungin as an internal standard. An AB-Sciex API 4000 mass spectrometer was operated in the multiple reaction monitoring mode (parent-to-product ion transition) under optimized conditions for detection of rezafungin (m/z 604.5 to 343.3 Da) and d9-rezafungin (m/z 609.5 to 343.3 Da) positive ions formed by electrospray ionization. Excellent intra- and inter-assay accuracy and precision, as measured by quality control (QC) samples, was obtained during validation. Across the range of QC samples tested (lower limit of quantitation, LLOQ, through the High QC range), the intra-assay accuracy (% bias from nominal) ranged from −1.4% to 7.0% with the intra-assay precision (% coefficient of variation) ranging from 1.6% to 7.4%. Inter-assay accuracy ranged from 0.3% to 4.3% with the inter-assay precision ranging from 2.7% to 5%.

[2] = Human metabolite profiling (HPLC with radiochemical and HRMS detection); type: in vivo; details: 400 mg IV
Protocol: (§4) (iv) Metabolite profiling. Plasma samples were pooled across subjects through 672 h postdose to produce inter-subject time point pools. Urine and fecal homogenate samples were pooled by subject across various time points up through 408 and 672 h postdose, respectively. Selected samples of plasma, urine, and feces were profiled for rezafungin and metabolites by HPLC with radiochemical and high-resolution mass spectrometry detection; metabolites were identified by HPLC with known standards and/or by HPLC-MS/MS structure elucidation. Pharmacokinetics were calculated by non-compartmental analysis using Phoenix WinNonlin software (version 6.3/8.1; Pharsight, Mountain View, CA).

[3] = Monkey metabolite profiling (LC-MS with radioactivity detection); type: in vivo, cynomolgus monkeys; details: pooled samples, IV 10 mg/kg
Protocol: (ii) Monkey study design. The study used 3 male cynomolgus monkeys, each administered a single 10 mg/kg IV dose of [^14C]-rezafungin (with a target radioactivity of 100 μCi/kg of [^14C]-rezafungin) by infusion into a saphenous vein over 20 min. Whole blood and plasma samples were collected at each of the following time points: predose, 0.5, 2, 4, 8, 24, 48, 96 120, 144, 168, 240, 480, 720, and 1440 h postdose. Urine, feces, and cage washings were collected at predose (urine/feces only) and daily 24-h collections for 30 days.
(iv) Metabolite profiling. The metabolite identification and urine profiling were achieved using pooled samples by equal percent weight of samples (urine, bile, feces) or by equal volume (50 μl) aliquots of each plasma sample across all time points/intervals. The urine, plasma, bile, and fecal samples were analyzed using liquid chromatography tandem mass spectrometry (LC-MS) coupled with a radioactivity flow-through detector for metabolite profiling and identification. Tandem MS experiments were performed, and the structures of the metabolites were proposed based on their MS/MS spectra. The proposed structures were confirmed by comparison of the retention times and product ion spectra with the authentic reference standards when possible.

[4] = Human clinical pharmacokinetics (plasma rezafungin, plasma and whole blood total radioactivity); type: in vivo
Protocol: as §1, §2, §3, §4

[5] = Rat excretion/mass balance of [14C]-rezafungin; type: in vivo, Sprague-Dawley rats; details: LSC; for Radioactivity recovered in feces: mean
Protocol: (i) Rat study design. The study used 12 male Sprague-Dawley rats, each administered a bolus IV injection into the tail vein over approximately 3–4 min of 15 mg/kg of rezafungin (with a target radioactivity of 200 μCi/kg of [^14C]-rezafungin). Three of the rats were bile duct cannulated. Whole blood/plasma, urine, feces/bile, and cage washings were collected at periodic intervals from noncannulated rats until euthanization at 336 h postdose and from bile duct cannulated rats until euthanization at 120 h postdose as that was the duration that the patency of bile duct cannulae could be maintained. Carcasses were collected at the time of euthanization. All samples were analyzed for drug-derived radioactivity by liquid scintillation counting.
(iii) Sample analysis. Whole blood and fecal homogenates were combusted prior to analysis by liquid scintillation counting (LSC). Blood, plasma, bile, urine, cage rinse/wash, and fecal homogenate samples were mixed with scintillation fluid and analyzed for radioactivity by LSC. Rat carcasses were dissolved in potassium hydroxide, and the resulting digests were mixed with scintillation fluid and analyzed for radioactivity by LSC.

[6] = of the estimated total through day 60
[7] = single 400-mg IV infusion, LSC, mean (SD)
[8] = single 400-mg IV infusion, mean (SD)
[9] = single 400-mg IV infusion, median (min, max)
[10] = bile duct cannulated rats, IV 15 mg/kg, until 120 h postdose, average
[11] = intact rats, IV 15 mg/kg, through 336 h postdose, average

## CCCCCOc1ccc(-c2ccc(-c3ccc(C(=O)N[C@H]4C[C@@H](O)[C@@H](OCC[N+](C)(C)C)NC(=O)[C@@H]5[C@@H](O)[C@@H](C)CN5C(=O)[C@H]([C@@H](C)O)NC(=O)[C@H]([C@H](O)[C@@H](O)c5ccc(O)cc5)NC(=O)[C@@H]5C[C@@H](O)CN5C(=O)[C@H]([C@@H](C)O)NC4=O)cc3)cc2)cc1 [rezafungin] ({pTerphenylCO(4''-OnC5H11)}-[Orn(4R-OH,5R-OCH2CH2NMe3+)]T[Hyp][hTyr(3S-OH,4S-OH)]T[Pro(3S-OH,4S-Me)]; lactam 1-C)
[1]; [6]
  Share of the total recovered radioactivity found in feces: Approximately 73%
  Share of the total recovered radioactivity found in urine: 27%
[1]; single 400-mg IV infusion, through the first 17 days (in-clinic), LSC, mean
  Cumulative recovery of radioactivity from excreta: 52%
[1]; through day 60, linear interpolation with day 29 and day 60 visits
  Estimated mean overall recovery of the dose: 88.3%
[1]; through the first 17 days
  Cumulative recovery of radioactivity in feces: 38%
  Cumulative recovery of radioactivity in urine: 14%
[2]; human feces pooled by subject through 672 h postdose
  Share of total recovered radioactivity in feces: 90%
[2]; human plasma pooled across subjects through 672 h postdose, HPLC radio/HRMS
  Share of total plasma radioactivity exposure: 69%
[2]; human urine pooled by subject through 408 h postdose
  Share of total recovered radioactivity in urine: negligible
[3]; monkey feces
  Share of total recovered radioactivity in feces: 35%
[3]; monkey plasma, LC-MS with radio-detection
  Share of total plasma radioactivity exposure: 74%
[4]; male, plasma, single 400-mg IV infusion, LC-MS/MS, mean (SD), SD
  Cmax: 18900 ng/mL
[4]; male, plasma, single 400-mg IV infusion, LC-MS/MS, mean (SD), SD, read-out: AUC0-∞, plasma rezafungin
  AUC(0-inf): 2110 µg·h/mL
[4]; male, plasma, single 400-mg IV infusion, apparent volume of distribution, terminal phase, mean (SD), SD, read-out: VZ, plasma rezafungin
  Vd: 88.6 L
[4]; male, plasma, single 400-mg IV infusion, median (min, max)
  Tmax: 1 h
[4]; male, plasma, single 400-mg IV infusion, terminal elimination half-life, mean (SD), SD, read-out: t½, plasma rezafungin (converted)
  half-life: 14.2 days
[4]; plasma, 9 healthy male subjects, single 400-mg IV infusion (200 μCi), LC-MS/MS, arithmetic mean (SD), SD, read-out: AUC0-t, plasma rezafungin
  AUC(0-t): 2050 µg·h/mL
[4]; single 400-mg IV infusion (200 μCi), LSC, mean (SD)
  AUC0-t, plasma total radioactivity: 2600 (163) μg equivalent×hour/ml
[4]; [7]
  AUC0-t, whole blood total radioactivity: 2390 (175) μg equivalent×hour/ml
  AUC0-∞, plasma total radioactivity: 2750 (182) μg equivalent×hour/ml
  AUC0-∞, whole blood total radioactivity: 2450 (200) μg equivalent×hour/ml
  Cmax, plasma total radioactivity: 18.2 (2.28) μg/ml
  Cmax, whole blood total radioactivity: 18.5 (2.24) μg/ml
[4]; [8]
  t½, plasma total radioactivity: 387 (44.8) hours
  t½, whole blood total radioactivity: 408 (39.7) hours
[4]; [9]
  tmax, plasma total radioactivity: 1.00 (1.00, 1.00) hours
  tmax, whole blood total radioactivity: 1.00 (1.00, 1.00) hours
[5]; bile duct cannulated rats (n = 3), single IV 15 mg/kg, until 120 h postdose
  Radioactivity recovered in feces: 35 % of the administered dose
[5]; bile duct cannulated rats, IV 15 mg/kg, euthanized at 120 h postdose, average
  Radioactivity recovered in the carcass: 30 % of the administered dose
[5]; bile duct cannulated rats, IV 15 mg/kg, until 120 h postdose
  Average total recovery of radioactivity: 98 % of the administered dose
[5]; [10]
  Radioactivity recovered in bile: 17 % of the administered dose
  Radioactivity recovered in cage residues: 1.2 % of the administered dose
[5]; intact (non-bile duct cannulated) male rats, single IV bolus 15 mg/kg (200 μCi/kg), through 336 h postdose
  Radioactivity recovered in feces: 70 % of the administered dose
[5]; intact rats, IV 15 mg/kg, at 336 h postdose, average
  Radioactivity recovered in the carcass: 7.9 % of the administered dose
[5]; [11]
  Radioactivity recovered in cage residues: 2.5 % of the administered dose
  Radioactivity recovered in urine: 14 % of the administered dose
